Like-named read-outs stand apart in the source and are kept apart here.
Columns and labels:
[1] = test system: phosphorylation of p-ERK1/2 in H358 cells; assay: H358 Cellular Phospho-ERK AlphaLISA; type: cell-based, Human; conditions: Homo sapiens, NCI-H358, 2 h
Procedure: This assay is used to measure the ability of test compounds to inhibit the phosphorylation of p-ERK1/2, a downstream effector of KRas in Human lung cancer cells H358 (ATCC CRL-5807). Briefly, the AlphaLISA® SureFire® Ultra™ p-ERK 1/2 (Thr202/Tyr204) assay is a sandwich immunoassay for quantitative detection of phospho-ERK 1/2 (phosphorylated on Thr202/Tyr204 in ERK1, or Thr185/Tyr187 in ERK2) in cellular lysates using Alpha Technology (Perkin Elmer Cat #ALSU-PERK-A50K).
H358 cells are plated at 40K cells per well in 100 μL media (RPMI 1640, GIBCO Cat #22400-071) containing 10% FBS (GIBCO Cat #: 10082-147) in a 96 well plate (Costar #3596) and are incubated overnight in humid trays at 37° C., 5% CO2. The next morning, 10 μL of serially-diluted (3-fold) test compounds (50 μM top concentration) and 10 uL of controls (Maximum signal wells: 5% DMSO and Minimum signal wells: 2 μM of N-(3-{3-cyclopropyl-5-[(2-fluoro-4-iodophenyl)amino]-6,8-dimethyl-2,4,7-trioxo-3,4,6,7-tetrahydropyrido[4,3-D]pyrimidin-1(2H)-yl}phenyl)acetamide (trametinib, as a positive control) are added to the cell plate and incubated for 2 hr in humid trays at 37° C./5% CO2. Lysis Buffer is prepared at RT containing a protease and phosphatase inhibitor cocktail. Culture medium is removed by inverting and shaking the cell plate in the sink and then blotting onto a paper towel. Lysis buffer is added to the cell plate (50 μL per well) and the plate is incubated at RT for 10 min on a shaker. For p-ERK detection, acceptor beads are diluted into a suspension mixture with buffer. Using a Starlett liquid handler, 5 μL of acceptor beads and 2 μL of cell lysate are transferred as a single-step in-tip dilution to a 384 well assay plate. The assay plate is sealed with foil and is incubated at RT for 2 hrs. Donor beads are diluted into a suspension mixture with buffer. Using the Starlet, 5 μL of donor beads are added to the assay plate that is then sealed, wrapped with foil. The plate is incubated at RT for 2 hrs in the dark. The assay plate is then read on an EnVision™ Plate Reader (Perkin Elmer) using a luminescence program.
The signal is converted to percent inhibition using the following equation: % Inhibition=100−[(Test Compound Signal−Median Minimum Signal)/(Median Maximum Signal−Median Min Signal)×100]. The Maximum signal is a control well without inhibitor.

Calu-1 = assay: Combination 4 day growth assay (Cell TiterGlo), Calu-1; type: cell-based; conditions: Homo sapiens, Calu-1, 96 h, single treatment, read-out: Absolute IC50
Procedure: (§1) Cell lines for this study are obtained from ATCC and grown under ATCC recommended conditions, except for LXFA-983L, which is obtained from Oncotest/Charles Rivers Laboratories, Wilmington, Mass. and D122-96, which is obtained from L. Eisenbach (Weizman Institute of Science, Rehovot, Israel)—both grown under recommended conditions. […] The proliferation assay is performed as a 4 day growth assay using Cell TiterGlo® as the readout. Briefly, cells are plated in 96-well cell culture plates and allowed to adhere overnight at 37° C. The following day, cells are treated with compounds, either single treatments or combination treatments. First, the testing compounds are serially diluted in DMSO, followed by dilution into media as a 5× concentration with 1% DMSO, and finally added to cells in media to dilute to 1×. The cells are incubated at 37° C. for 4 more days. At the end of the incubation period, Cell TiterGlo® reagent is mixed and added to the wells. After 10 minutes, the luminescence is read by a Perkin Elmer Envision instrument. Absolute IC50 values generated by a 4-parameter logistics model for the single and combination treatments are generated, followed by combination indexes for each combination treatment and cell line. The combination IC50 values are adjusted based on the total concentration of each compound when added together. […] The combination index (CI) measures the degree to which the potency of a combination therapy differs from the expected-if-additive potency and is based on the Loewe definition of additivity.
(§2) [formula] Where • CAy and CBy are the concentrations of therapies A and B that produce an effect, y, when given in combination • ICAy and ICBy are the concentrations of A and B that produce an effect, y, when given individually The biological interpretation of the combination index is as follows: synergistic if the combination index <0.5, additive if the combination index is between 0.5 and 2, and antagonistic if the combination index is >2.

H23 = assay: Combination 4 day growth assay (Cell TiterGlo), H23; type: cell-based; conditions: Homo sapiens, NCI-H23, 96 h, single treatment, read-out: Absolute IC50
Procedure: as §1, §2

CT-26-H4/KRas G12C = CT-26-H4/KRas G12C mouse syngeneic model, immuno-therapy combination; type: in vivo; conditions: Example 1 30 mg/kg BID × 21 PO, PD-L1 antibody 500 ug/mouse Q7D × 3 IP, PD-1 antibody 250 ug/mouse BIW × 3 IP
From the text: A mouse syngeneic model is used to evaluate the effects of KRas G12C inhibition and immuno-therapy combination. In this model, the KRas G12D mutation is converted to KRas G12C mutation by CRISPR knock-in in the CT-26 cell line, a mouse colorectal tumor cell line. The KRas G12C knock-in is confirmed by genetic and functional characterization. The engineered cell line is named CT-26-H4/KRas G12C. These cells are implanted to the Balb/c mice, and the compound treatment is started 6 days post tumor cell implantation. PD-1 and PD-L1 inhibitors are known in the art and include durvalumab, pembrolizumab, and nivolumab. […] After 3 weeks, compound treatment is stopped and all tumors in monotherapy groups with the exception of 1 animal in the anti-PD-1 group started to regrow. However, the tumors in the two combination groups have no signs of regrowth.

IC50 ([1]; read-out: pERK): 5.66 nM
IC50 ([1]; read-out: relative IC50): 5.7 nM
IC50 (Calu-1): 14.5 nM
Structure (SMILES): C=CC(=O)N1CCN(c2ncnc3c(F)c(-c4ccc(F)c5sc(N)nc45)c(Cl)cc23)CC1 [Example 1, 1-{4-[7-(2-Amino-7-fluoro-1,3-benzothiazol-4-yl)-6-chloro-8-fluoroquinazolin-4-yl]piperazin-1-yl}prop-2-en-1-one]
IC50 (H23): 235 nM
Complete Response (% CR) (CT-26-H4/KRas G12C; 40 days post treatment): 0%
Complete Response (CR)/group mice (CT-26-H4/KRas G12C; 40 days post treatment): 0/10
% Tumor Growth Inhibition (CT-26-H4/KRas G12C; End of treatment at day 28): 96%
Complete Response (% CR) (CT-26-H4/KRas G12C; End of treatment at day 28): 10%
Complete Response (CR)/group mice (CT-26-H4/KRas G12C; End of treatment at day 28): 1/10

From US10968214B2, “KRas G12C inhibitors” (Eli Lilly and Company, priority 2018, dated 2021)
